Data set [1] deals with 3',5'-cyclic-AMP phosphodiesterase 4D (Homo sapiens, UniProt Q08499). Briefly: Inhibition of recombinant PDE4D2 (86 to 413 residues) (unknown origin) expressed in Escherichia coli BL21 using [3H]cAMP as substrate incubated for 15 mins by liquid scintillation method.
The nature of data set [2]: Metabolic stability in rat liver microsomes assessed as half life. The format is ADME, Microsome.
Data set [3] has as its target Dual specificity calcium/calmodulin-dependent 3',5'-cyclic nucleotide phosphodiesterase 1C (Homo sapiens, UniProt Q14123). Briefly: Inhibition of recombinant PDE1C (147 to 531 residues) (unknown origin) expressed in Escherichia coli BL21 using [3H]cGMP as substrate incubated for 15 mins by liquid scintillation method.
For data set [4], the target named is High affinity 3',5'-cyclic-AMP phosphodiesterase 7A (Homo sapiens, UniProt Q13946). Briefly: Inhibition of recombinant PDE7A1 (130 to 482 residues) (unknown origin) expressed in Escherichia coli BL21 using [3H]cAMP as substrate incubated for 15 mins by liquid scintillation method.
Sequence of High affinity 3',5'-cyclic-AMP phosphodiesterase 7A (Q13946 whole entry, the tested form may be a part): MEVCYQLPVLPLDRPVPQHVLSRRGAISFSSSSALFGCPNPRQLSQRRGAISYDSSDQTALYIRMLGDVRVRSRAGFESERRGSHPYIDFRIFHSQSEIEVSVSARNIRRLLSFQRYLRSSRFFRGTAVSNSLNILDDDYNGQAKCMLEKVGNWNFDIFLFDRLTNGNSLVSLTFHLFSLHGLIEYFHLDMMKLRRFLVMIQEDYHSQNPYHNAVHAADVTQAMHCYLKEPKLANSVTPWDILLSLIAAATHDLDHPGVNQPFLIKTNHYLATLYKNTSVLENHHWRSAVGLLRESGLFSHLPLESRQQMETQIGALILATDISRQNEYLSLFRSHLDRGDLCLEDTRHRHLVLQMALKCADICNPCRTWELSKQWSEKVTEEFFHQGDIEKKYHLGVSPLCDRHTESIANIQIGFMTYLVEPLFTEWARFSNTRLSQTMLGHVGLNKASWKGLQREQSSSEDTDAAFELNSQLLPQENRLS
For data set [5], the target named is High affinity cGMP-specific 3',5'-cyclic phosphodiesterase 9A (Homo sapiens, UniProt O76083). Briefly: Inhibition of recombinant PDE9A2 (181 to 506 residues) (unknown origin) expressed in Escherichia coli BL21 using [3H]cGMP as substrate incubated for 15 mins by liquid scintillation method.
Sequence of High affinity cGMP-specific 3',5'-cyclic phosphodiesterase 9A (O76083 whole entry, the tested form may be a part): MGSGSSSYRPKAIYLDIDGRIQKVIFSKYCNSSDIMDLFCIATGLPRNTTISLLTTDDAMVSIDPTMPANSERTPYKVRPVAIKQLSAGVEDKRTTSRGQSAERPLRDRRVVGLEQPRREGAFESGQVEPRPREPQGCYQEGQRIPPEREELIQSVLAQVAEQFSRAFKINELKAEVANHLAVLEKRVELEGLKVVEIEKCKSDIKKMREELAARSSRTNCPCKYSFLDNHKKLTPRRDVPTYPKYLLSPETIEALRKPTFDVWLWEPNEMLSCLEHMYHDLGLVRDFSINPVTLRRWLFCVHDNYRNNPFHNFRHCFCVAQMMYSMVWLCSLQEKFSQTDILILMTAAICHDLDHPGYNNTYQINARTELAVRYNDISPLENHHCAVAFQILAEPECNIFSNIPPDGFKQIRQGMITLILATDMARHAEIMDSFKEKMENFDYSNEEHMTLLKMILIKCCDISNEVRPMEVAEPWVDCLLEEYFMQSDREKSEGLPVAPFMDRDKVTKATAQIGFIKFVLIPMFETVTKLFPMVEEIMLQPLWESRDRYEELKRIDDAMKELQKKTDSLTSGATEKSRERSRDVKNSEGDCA
Data set [6] addresses cAMP and cAMP-inhibited cGMP 3',5'-cyclic phosphodiesterase 10A (Homo sapiens, UniProt Q9Y233). Briefly: Inhibition of recombinant PDE10A2 (449 to 770 residues) (unknown origin) expressed in Escherichia coli BL21 using [3H]cAMP as substrate incubated for 15 mins by liquid scintillation method.
Data set [7] in a line: Selectivity index, ratio of IC50 for inhibition of recombinant PDE4B2 (152 to 487 residues) (unknown origin) expressed in Escherichia coli BL21 to IC50 for inhibition of recombinant PDE4D2 (86 to 413 residues) (unknown origin) expressed in Escherichia coli BL21.
Data set [8] is described as follows: Selectivity index, ratio of IC50 for inhibition of recombinant PDE1C (147 to 531 residues) (unknown origin) expressed in Escherichia coli BL21 to IC50 for inhibition of recombinant PDE4D2 (86 to 413 residues) (unknown origin) expressed in Escherichia coli BL21.
A short description of data set [9]: Selectivity index, ratio of IC50 for inhibition of recombinant PDE2A (580 to 919 residues) (unknown origin) expressed in Escherichia coli BL21 to IC50 for inhibition of recombinant PDE4D2 (86 to 413 residues) (unknown origin) expressed in Escherichia coli BL21.
A short description of data set [10]: Selectivity index, ratio of IC50 for inhibition of recombinant PDE3A (679 to 1087 residues) (unknown origin) expressed in Escherichia coli BL21 to IC50 for inhibition of recombinant PDE4D2 (86 to 413 residues) (unknown origin) expressed in Escherichia coli BL21.
A short description of data set [11]: Selectivity index, ratio of IC50 for inhibition of PDE5A1 (535 to 860 residues) (unknown origin) expressed in Escherichia coli BL21 to IC50 for inhibition of recombinant PDE4D2 (86 to 413 residues) (unknown origin) expressed in Escherichia coli BL21.
Data set [12] in a line: Selectivity index, ratio of IC50 for inhibition of PDE7A1 (130 to 482 residues) (unknown origin) expressed in Escherichia coli BL21 to IC50 for inhibition of recombinant PDE4D2 (86 to 413 residues) (unknown origin) expressed in Escherichia coli BL21.
Data set [13] in a line: Selectivity index, ratio of IC50 for inhibition of recombinant PDE8A1 (480 to 828 residues) (unknown origin) expressed in Escherichia coli BL21 to IC50 for inhibition of recombinant PDE4D2 (86 to 413 residues) (unknown origin) expressed in Escherichia coli BL21.
The target in the next data set is T1, Cytochrome P450 2B6 (Homo sapiens, UniProt P20813).
T1 sequence (P20813 whole entry): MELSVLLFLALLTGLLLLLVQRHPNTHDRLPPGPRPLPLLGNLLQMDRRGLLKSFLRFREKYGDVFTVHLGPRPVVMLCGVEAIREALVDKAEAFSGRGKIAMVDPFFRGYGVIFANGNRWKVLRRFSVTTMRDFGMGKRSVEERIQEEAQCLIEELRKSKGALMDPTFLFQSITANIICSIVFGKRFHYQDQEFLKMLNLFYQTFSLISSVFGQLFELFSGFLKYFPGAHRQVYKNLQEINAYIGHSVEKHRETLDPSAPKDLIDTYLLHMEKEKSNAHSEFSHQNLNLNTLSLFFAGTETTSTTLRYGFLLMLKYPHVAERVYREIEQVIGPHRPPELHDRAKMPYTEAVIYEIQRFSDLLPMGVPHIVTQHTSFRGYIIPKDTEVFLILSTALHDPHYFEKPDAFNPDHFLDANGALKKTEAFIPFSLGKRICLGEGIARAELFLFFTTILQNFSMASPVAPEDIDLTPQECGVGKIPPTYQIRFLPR
Briefly: Inhibition of human CYP2B6 in human hepatocytes. The format is ADME, cell-based, Hepatocyte.

Data set [14] is described as follows: Selectivity index, ratio of IC50 for inhibition of recombinant PDE9A2 (181 to 506 residues) (unknown origin) expressed in Escherichia coli BL21 to IC50 for inhibition of recombinant PDE4D2 (86 to 413 residues) (unknown origin) expressed in Escherichia coli BL21.
Data set [15] can be described thus: Selectivity index, ratio of IC50 for inhibition of recombinant PDE10A2 (449 to 770 residues) (unknown origin) expressed in Escherichia coli BL21 to IC50 for inhibition of recombinant PDE4D2 (86 to 413 residues) (unknown origin) expressed in Escherichia coli BL21.
The next data set has as its target Cytochrome P450 2D6 (Homo sapiens, UniProt P10635). Briefly: Inhibition of human CYP2D6 in human hepatocytes. The class given is ADME, cell-based, Hepatocyte.
Another data set concerns the target Cytochrome P450 3A4 (Homo sapiens, UniProt P08684). Briefly: Inhibition of human CYP3A4 in human hepatocytes. The format is ADME, cell-based, Hepatocyte.
A short description of data set [16]: Clearance in Sprague-Dawley rat at 2.5 mg/kg, iv. The format is ADME, organism-based. Particulars: in vivo.
Data set [17] can be described thus: MRT(0 to 24 hrs) in Sprague-Dawley rat at 2.5 mg/kg, iv. The class given is ADME, organism-based. Particulars: in vivo.
Data set [18] is described as follows: Volume of distribution at steady state in Sprague-Dawley rat at 2.5 mg/kg, iv. The format is ADME, organism-based. To be noted: in vivo, read-out: Vdss.
Data set [19] deals with Mus musculus. Briefly: Anti-inflammatory bowel disease activity in DSS-induced inflammatory bowel disease C57BL/6 mouse model assessed as decrease in rectal bleeding by measuring disease activity index score at 5 mg/kg, iv BID and measured upto 8 days by Haem-occult test. The format is functional, organism-based. To be noted: time <= 8.0 day.
Data set [20] deals with Mus musculus. Briefly: Anti-inflammatory bowel disease activity in DSS-induced inflammatory bowel disease C57BL/6 mouse model assessed as increase in colon length at 5 mg/kg, iv BID and measured upto 8 days. The format is functional, organism-based. To be noted: time <= 8.0 day.
The subject of data set [21] is Mus musculus. Briefly: Anti-inflammatory bowel disease activity in DSS-induced inflammatory bowel disease C57BL/6 mouse model assessed as decrease in TNF-alpha mRNA expression level in colon at 5 mg/kg, iv BID and measured after 8 days by real-time PCR analysis. The class given is functional, organism-based. To be noted: time 8.0 day. Background: Real-time PCR tracks product formation cycle by cycle.

Structures are written as SMILES. Calls of active or inactive are those of the source.

Sequence of Dual specificity calcium/calmodulin-dependent 3',5'-cyclic nucleotide phosphodiesterase 1C (Q14123 whole entry, the tested form may be a part): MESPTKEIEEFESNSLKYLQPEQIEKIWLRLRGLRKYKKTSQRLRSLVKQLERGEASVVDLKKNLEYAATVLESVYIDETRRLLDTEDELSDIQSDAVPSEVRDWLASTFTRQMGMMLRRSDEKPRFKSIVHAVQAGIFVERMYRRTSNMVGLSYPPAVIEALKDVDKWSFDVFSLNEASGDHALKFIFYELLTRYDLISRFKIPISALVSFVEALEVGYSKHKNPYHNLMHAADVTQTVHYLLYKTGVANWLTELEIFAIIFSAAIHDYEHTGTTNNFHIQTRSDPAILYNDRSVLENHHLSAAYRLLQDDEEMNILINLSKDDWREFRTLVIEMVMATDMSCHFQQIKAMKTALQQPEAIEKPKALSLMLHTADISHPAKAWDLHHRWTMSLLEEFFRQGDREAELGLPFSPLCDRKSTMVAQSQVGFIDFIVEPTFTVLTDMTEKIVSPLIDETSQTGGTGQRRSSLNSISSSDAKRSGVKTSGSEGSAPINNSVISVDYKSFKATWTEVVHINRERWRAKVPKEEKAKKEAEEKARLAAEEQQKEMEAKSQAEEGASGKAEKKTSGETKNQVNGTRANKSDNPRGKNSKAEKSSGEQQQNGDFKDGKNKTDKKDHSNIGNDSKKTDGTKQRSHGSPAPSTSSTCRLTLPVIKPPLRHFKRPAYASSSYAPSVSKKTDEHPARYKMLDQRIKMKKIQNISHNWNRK
Sequence of Cytochrome P450 2D6 (P10635 whole entry): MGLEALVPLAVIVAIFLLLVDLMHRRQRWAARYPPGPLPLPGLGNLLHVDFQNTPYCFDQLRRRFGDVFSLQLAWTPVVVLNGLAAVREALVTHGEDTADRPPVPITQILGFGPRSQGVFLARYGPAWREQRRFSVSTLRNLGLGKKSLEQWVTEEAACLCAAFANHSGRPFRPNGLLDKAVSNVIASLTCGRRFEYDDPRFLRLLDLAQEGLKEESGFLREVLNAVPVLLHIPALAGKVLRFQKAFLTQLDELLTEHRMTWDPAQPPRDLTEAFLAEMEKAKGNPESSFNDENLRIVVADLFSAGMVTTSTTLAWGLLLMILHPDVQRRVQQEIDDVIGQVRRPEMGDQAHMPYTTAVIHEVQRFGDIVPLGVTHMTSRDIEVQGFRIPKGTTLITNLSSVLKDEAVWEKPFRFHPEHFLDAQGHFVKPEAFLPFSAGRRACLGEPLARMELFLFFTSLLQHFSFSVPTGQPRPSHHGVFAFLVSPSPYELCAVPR
Sequence of cAMP and cAMP-inhibited cGMP 3',5'-cyclic phosphodiesterase 10A (Q9Y233 whole entry, the tested form may be a part): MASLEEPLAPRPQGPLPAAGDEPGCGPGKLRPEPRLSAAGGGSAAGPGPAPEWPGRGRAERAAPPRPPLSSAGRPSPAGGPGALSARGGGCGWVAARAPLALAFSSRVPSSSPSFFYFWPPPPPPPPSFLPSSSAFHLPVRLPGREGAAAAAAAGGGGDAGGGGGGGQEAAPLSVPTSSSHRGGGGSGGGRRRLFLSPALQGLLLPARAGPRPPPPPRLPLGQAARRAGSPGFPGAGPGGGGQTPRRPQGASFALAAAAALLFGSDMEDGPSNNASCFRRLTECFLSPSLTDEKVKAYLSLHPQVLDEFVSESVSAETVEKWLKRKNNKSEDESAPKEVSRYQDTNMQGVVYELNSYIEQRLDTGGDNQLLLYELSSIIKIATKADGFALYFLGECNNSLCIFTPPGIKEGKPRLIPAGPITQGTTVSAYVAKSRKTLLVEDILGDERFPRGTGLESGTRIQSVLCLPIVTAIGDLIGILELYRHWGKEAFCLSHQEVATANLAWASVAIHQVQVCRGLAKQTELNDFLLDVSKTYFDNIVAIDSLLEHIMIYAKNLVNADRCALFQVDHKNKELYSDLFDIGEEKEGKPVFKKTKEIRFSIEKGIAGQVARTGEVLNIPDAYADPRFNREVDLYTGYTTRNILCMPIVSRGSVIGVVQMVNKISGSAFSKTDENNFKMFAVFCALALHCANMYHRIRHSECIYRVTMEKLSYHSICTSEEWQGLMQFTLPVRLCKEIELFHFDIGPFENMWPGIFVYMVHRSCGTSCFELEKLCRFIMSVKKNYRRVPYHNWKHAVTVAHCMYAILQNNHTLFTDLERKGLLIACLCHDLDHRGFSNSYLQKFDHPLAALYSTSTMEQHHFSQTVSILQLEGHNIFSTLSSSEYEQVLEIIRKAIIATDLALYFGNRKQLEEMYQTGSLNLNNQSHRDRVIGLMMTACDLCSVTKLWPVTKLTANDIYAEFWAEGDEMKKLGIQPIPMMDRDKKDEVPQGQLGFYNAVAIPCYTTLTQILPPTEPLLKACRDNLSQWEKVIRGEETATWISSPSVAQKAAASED
Sequence of 3',5'-cyclic-AMP phosphodiesterase 4D (Q08499 whole entry, the tested form may be a part): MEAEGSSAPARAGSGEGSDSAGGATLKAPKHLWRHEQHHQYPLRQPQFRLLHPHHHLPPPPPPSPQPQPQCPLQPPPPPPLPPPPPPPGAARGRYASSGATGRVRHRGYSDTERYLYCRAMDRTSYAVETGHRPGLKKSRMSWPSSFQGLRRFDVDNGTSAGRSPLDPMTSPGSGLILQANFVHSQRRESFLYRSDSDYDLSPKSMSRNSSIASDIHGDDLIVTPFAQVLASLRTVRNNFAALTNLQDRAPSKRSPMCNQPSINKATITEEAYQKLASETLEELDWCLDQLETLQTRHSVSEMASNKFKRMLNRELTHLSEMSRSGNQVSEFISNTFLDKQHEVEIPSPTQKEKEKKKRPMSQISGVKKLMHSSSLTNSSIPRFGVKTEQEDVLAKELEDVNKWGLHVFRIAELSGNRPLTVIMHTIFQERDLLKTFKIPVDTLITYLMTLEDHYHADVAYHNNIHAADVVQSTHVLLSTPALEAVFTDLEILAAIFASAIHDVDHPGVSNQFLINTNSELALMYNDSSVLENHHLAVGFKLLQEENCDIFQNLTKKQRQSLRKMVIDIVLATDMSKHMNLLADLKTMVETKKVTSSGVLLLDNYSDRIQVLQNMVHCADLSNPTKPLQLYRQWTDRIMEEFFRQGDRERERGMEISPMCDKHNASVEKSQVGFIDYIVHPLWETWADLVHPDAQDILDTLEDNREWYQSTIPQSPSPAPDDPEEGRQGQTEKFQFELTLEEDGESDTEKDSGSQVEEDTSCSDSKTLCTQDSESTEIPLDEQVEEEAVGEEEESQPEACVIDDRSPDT
Sequence of Cytochrome P450 3A4 (P08684 whole entry): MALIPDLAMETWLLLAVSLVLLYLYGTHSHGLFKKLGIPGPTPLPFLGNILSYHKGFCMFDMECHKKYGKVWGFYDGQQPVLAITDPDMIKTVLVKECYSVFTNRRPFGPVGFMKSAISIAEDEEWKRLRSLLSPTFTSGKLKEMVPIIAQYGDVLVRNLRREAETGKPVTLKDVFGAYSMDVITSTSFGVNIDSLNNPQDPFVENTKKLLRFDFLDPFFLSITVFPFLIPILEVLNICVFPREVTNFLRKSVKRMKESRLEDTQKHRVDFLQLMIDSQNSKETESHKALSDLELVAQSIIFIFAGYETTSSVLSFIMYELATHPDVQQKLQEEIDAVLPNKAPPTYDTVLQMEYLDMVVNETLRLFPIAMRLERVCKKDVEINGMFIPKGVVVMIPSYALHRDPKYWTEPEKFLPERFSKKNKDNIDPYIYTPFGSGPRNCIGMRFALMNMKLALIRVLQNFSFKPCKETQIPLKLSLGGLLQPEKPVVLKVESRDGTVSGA

Take `COc1c(OCC2CC2)cc2oc3cc4c(c(OCc5ccncc5)c3c(=O)c2c1CC=C(C)C)C=CC(C)(C)O4`: the IC50 (commonly the midpoint of a concentration-inhibition curve) is 3.5 nM in data set [1]; greater than 10 µM in data set [3]; 15 nM in data set [4]; greater than 10 µM in data set [5]; 1020 nM in [6]; greater than 25 µM against Cytochrome P450 2B6. Further, the values for the IC50 against Cytochrome P450 2D6 and at Cytochrome P450 3A4 were greater than 25 µM and 6.1 µM, respectively. In data set [2], the half-life (in general, the time needed for the level to fall by half in the phase considered) is 445 min. The Ratio IC50 in [7] was 2.71; in data set [8] it was greater than 2800; in data set [9], greater than 2800; in data set [10], greater than 2800; in data set [11], 353; in data set [12] it was 4.27. For the same compound, the values for the Ratio IC50 in data set [13], in data set [14] and in [15] were 55, greater than 2800 and 290, respectively. Further, the clearance (usually a measure of how efficiently the substance is removed, as volume per time) in data set [16] worked out at 6.4 mL/min/kg. In addition, in data set [17], the MRT last (commonly the average time that molecules of a dose stay in the body) is 1.76 h. Also, in data set [18], the Vd was determined as 0.673 L/kg. Also, the result in the data set with Mus musculus [19], in the data set with Mus musculus [20] and in the data set with Mus musculus [21] was Active.

(Values after ChEMBL document CHEMBL5338717, “Discovery of novel PDE4 inhibitors targeting the M-pocket from natural mangostanin with improved safety for the treatment of Inflammatory Bowel Diseases” (Eur J Med Chem, 2022).)
